The source of these data is ChEMBL document CHEMBL1128123, “Inhibitors of acyl-CoA: Cholesterol O-acyl transferase (ACAT) as hypocholesterolemic agents. 12. Syntheses and biological activity of structurally novel tetrazole amides” (Bioorg Med Chem Lett, 1995).

SMILES strings stand for the structures.

The species named for experiment [1] is Rattus norvegicus. Kind of experiment: Percent change in total cholesterol in cholic acid (0.5%)-cholesterol (1.5%)-peanut oil (5.5%)-fed rats. Format: functional.
Experiment [2] concerns the target T1, Sterol O-acyltransferase 1 (Rattus norvegicus, UniProt O70536).
T1 sequence (O70536 whole entry): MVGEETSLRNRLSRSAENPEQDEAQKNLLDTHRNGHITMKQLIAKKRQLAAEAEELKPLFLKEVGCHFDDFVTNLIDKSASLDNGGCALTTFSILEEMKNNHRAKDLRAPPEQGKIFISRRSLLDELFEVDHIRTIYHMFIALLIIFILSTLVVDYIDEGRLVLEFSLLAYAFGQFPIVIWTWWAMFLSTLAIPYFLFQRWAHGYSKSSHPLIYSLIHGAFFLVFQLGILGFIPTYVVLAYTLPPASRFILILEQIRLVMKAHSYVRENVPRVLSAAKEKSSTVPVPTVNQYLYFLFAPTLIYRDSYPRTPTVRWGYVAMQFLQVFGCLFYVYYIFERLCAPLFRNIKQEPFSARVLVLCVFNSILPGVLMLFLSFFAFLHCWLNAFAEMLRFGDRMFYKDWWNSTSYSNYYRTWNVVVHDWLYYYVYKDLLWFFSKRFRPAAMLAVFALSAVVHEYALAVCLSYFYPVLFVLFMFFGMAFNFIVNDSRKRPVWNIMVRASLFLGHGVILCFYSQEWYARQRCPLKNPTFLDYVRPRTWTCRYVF
Put plainly: Concentration required for the in vitro inhibition of Acyl coenzyme A:cholesterol acyltransferase (ACAT) in liver microsomes isolated from cholesterol-fed rats. On the set-up: species or system Microsome.

The target of experiment [3] is T2, Acyl-CoA:cholesterol acyltransferase (Oryctolagus cuniculus, UniProt Q95214).
T2 sequence (Q95214 whole entry): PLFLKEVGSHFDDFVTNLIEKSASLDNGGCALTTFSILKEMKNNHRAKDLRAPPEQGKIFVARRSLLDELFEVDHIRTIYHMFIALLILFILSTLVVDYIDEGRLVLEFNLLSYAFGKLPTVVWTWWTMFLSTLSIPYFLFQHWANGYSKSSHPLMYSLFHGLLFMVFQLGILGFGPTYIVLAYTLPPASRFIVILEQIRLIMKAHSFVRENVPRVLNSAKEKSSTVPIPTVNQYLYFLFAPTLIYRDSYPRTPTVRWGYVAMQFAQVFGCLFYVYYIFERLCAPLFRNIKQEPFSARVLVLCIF
Put plainly: Concentration required for the in vitro inhibition of Acyl coenzyme A:cholesterol acyltransferase (ACAT) in intestinal microsomes isolated from cholesterol-fed rabbits. On the set-up: species or system Intestine.

As to `CCCCCCCCCCCCn1nnnc1C(NC(=O)c1ccnc(SC)c1)c1ccccc1` (configuration not stated), in experiment [1], the “Change TC” value is -37%. Further, the 50% inhibitory concentration (IC50) in experiment [2] was determined as 140 nM.

Take `CCCCCCCCCCCCn1nnc(C(NC(=O)c2ccccc2OC)c2ccccc2)n1` (configuration not stated): in experiment [1], the “Change TC” value is given as -28%. The molecule also yielded an IC50 in experiment [2] of 650 nM.

`CCCCCCCCCCCCn1nnc(C(NC(=O)c2ccc([N+](=O)[O-])cc2)c2ccccc2)n1` (configuration not stated): in experiment [1], the “Change TC” value came to 8%. In experiment [2], this molecule displayed an IC50 of 540 nM.

Turning to `CCCCCCCCCCC(C)(C)NC(=O)c1c(OC)cc(OC)cc1OC`, the “Change TC” value in experiment [1] was -10%. The IC50 in experiment [2] is more than 10000 nM.

Turning to `CCCCCCCCCCCCn1nnc(C(NC(=O)c2ccccc2)c2ccccc2)n1` (configuration not stated), in experiment [1], the “Change TC” value is listed as -5%. The molecule further gave an IC50 in experiment [2] of 350 nM.

Take `CCCCCCCCCCCCn1nnc(C(NC(=O)c2ccccc2C(F)(F)F)c2ccccc2)n1` (configuration not stated): the “Change TC” value in experiment [1] was -15%. The molecule also registered an IC50 in experiment [2] of 120 nM.

With `CCCCCCCCCCCCn1nnc(C(NC(=O)c2ccc(C(F)(F)F)cc2)c2ccccc2)n1` (configuration not stated), in experiment [1], the “Change TC” value is recorded as -10%. The molecule further yielded an IC50 in experiment [2] of 850 nM.

On to `CCCCCCCCCCCCn1nnc(C(NC(=O)c2c(C)cccc2C)c2ccccc2)n1` (configuration not stated), for which the “Change TC” value in experiment [1] was -40%. Further, the IC50 in experiment [3] was determined as 110 nM; in experiment [2], 310 nM.

For `CCCCCCCCCCCCn1nnnc1C(NC(=O)c1c(C)cccc1C)c1ccccc1` (configuration not stated), the “Change TC” value in experiment [1] was -57%. In experiment [2], this molecule returned an IC50 of 180 nM.

For the molecule `CCCCCCCCCCCCn1nnnc1C(NC(=O)c1c(Cl)cccc1Cl)c1ccccc1` (configuration not stated), the “Change TC” value in experiment [1] is -31%. The molecule further returned an IC50 in experiment [2] of 380 nM.

Turning to `CCCCCCCCCCCCn1nnc(C(NC(=O)c2cccc(Cl)c2)c2ccccc2)n1` (configuration not stated), the “Change TC” value in experiment [1] is 3%. This molecule also gave an IC50 in experiment [2] of 250 nM.

For `CCCCCCCCCCCCn1nnc(C(NC(=O)c2ccc(OC)cc2)c2ccccc2)n1` (configuration not stated), in experiment [1], the “Change TC” value was -34%. This molecule also had a half-inhibitory concentration (IC50) in experiment [2] of 600 nM.

Take `CCCCCCCCCCCCn1nnc(C(NC(=O)c2ccnc(SC)c2)c2ccccc2)n1` (configuration not stated): in experiment [1], the “Change TC” value was -68%. In addition, the IC50 in experiment [2] was 80 nM.

Turning to `CCCCCCCn1nnc(C(NC(=O)c2c(C)cccc2C)c2ccccc2)n1` (configuration not stated), the “Change TC” value in experiment [1] is recorded as -13%.

Consider `CCCCCCCCCCCCn1nnnc1C(NC(=O)c1ccccc1C(F)(F)F)c1ccccc1` (configuration not stated), for which the “Change TC” value in experiment [1] is given as -12%. Besides, the IC50 in experiment [2] was determined as 350 nM.

On to `CCCCCCCCCCCCn1nnc(C(NC(=O)c2c(OC)cc(OC)cc2OC)c2ccccc2)n1` (configuration not stated), for which the “Change TC” value in experiment [1] is given as -36%. In experiment [2], this molecule yielded an IC50 of 1700 nM.

With `CCCCCCCCCCCCCCCn1nnc(C(NC(=O)c2c(C)cccc2C)c2ccccc2)n1` (configuration not stated), the “Change TC” value in experiment [1] is -14%.

Molecule `CCCCCCCC/C=C\CCCCCCCCNC(=O)c1c(OC)cc(OC)cc1OC` registered an IC50 in experiment [2] of 9400 nM.

For the molecule `CCCCCCCCCCCCn1nnc(C(NC(=O)c2cccc([N+](=O)[O-])c2)c2ccccc2)n1` (configuration not stated), the “Change TC” value in experiment [1] is reported as -33%. In experiment [2], this molecule registered an IC50 of 80 nM.

Consider `CCCCCCCCCCCCn1nnc(C(NC(=O)c2ccccc2[N+](=O)[O-])c2ccccc2)n1` (configuration not stated), for which the “Change TC” value in experiment [1] is -27%. This molecule showed an IC50 in experiment [2] of 240 nM.

For the molecule `CCCCCCCCCCCCn1nnc(C(NC(=O)c2c(Cl)cccc2Cl)c2ccccc2)n1` (configuration not stated), the “Change TC” value in experiment [1] is -26%. The IC50 in experiment [2] is 460 nM.

Regarding `CCCCCCCCCCCCn1nnc(C(NC(=O)c2ccc(Cl)cc2)c2ccccc2)n1` (configuration not stated), half-maximal inhibition in experiment [2] (IC50) required 440 nM.

Consider `CCCCCCCCCCCCn1nnnc1C(NC(=O)c1cccc([N+](=O)[O-])c1)c1ccccc1` (configuration not stated), for which the “Change TC” value in experiment [1] is reported as -31%. This molecule yielded an IC50 in experiment [2] of 190 nM.

For the molecule `CCCCCCCCCCCCn1nnc(C(NC(=O)c2c(C(C)C)cccc2C(C)C)c2ccccc2)n1` (configuration not stated), the “Change TC” value in experiment [1] was 2%. Moreover, in experiment [2], the IC50 was 810 nM.

Take `CCCCCCCCCCCCn1nnc(C(NC(=O)c2ccc(C)cc2)c2ccccc2)n1` (configuration not stated): the “Change TC” value in experiment [1] is reported as -4%. The IC50 in experiment [2] turned out to be 510 nM.

Turning to `CCCCCCCCCCCCn1nnc(C(NC(=O)c2ccc(F)cc2F)c2ccccc2)n1` (configuration not stated), the “Change TC” value in experiment [1] is given as -10%. In experiment [2], inhibition was half-maximal at 490 nM (IC50).

As to `CCCCCCCCCCCCn1nnnc1C(NC(=O)c1ccc(F)cc1F)c1ccccc1` (configuration not stated), the “Change TC” value in experiment [1] is -23%. The same molecule returned an IC50 in experiment [2] of 380 nM.

Take `CCCCCCCCCCC(C)(C)C(=O)Nc1c(OC)cc(OC)cc1OC` [CL-976]: the “Change TC” value in experiment [1] is -73%.

One may read the IC50 as the concentration at which inhibition is half-maximal.
